From US20240199605A1, “SMALL MOLECULAR INHIBITORS OF NF-kB INDUCING KINASE” (Janssen Pharmaceutica NV, priority 2019, published 2024) come the findings set out here.

Assay [1] deals with p-IKKα levels in L363 (NIK translocated multiple myeloma) cells. Briefly: Effect of compounds on p-IKKα levels in L363 cells (AlphaLISA SureFire Ultra). In kind it is cell-based, human. To be noted: BAFF stimulated, MG132, 6 h, average of values, read-out: Assay 2 IC50. In a few lines: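 Inhibition of p-IKKα (Ser176/180) read by AlphaLISA after 6 h, 37 °C compound exposure (11-point 1:3 series, 0.3% DMSO) of L363 cells pre-incubated overnight ± 250 ng/ml BAFF and plated ± BAFF ± 10 μM MG132. Normalised to BAFF/MG132/DMSO and unstimulated controls; IC50 by sigmoidal fitting, duplicates.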
Background: Alpha assays give light when donor and acceptor beads are brought close together.

In assay [2] the target is recombinant human NF-kappaB-inducing kinase (NIK/MAP3K14) (Homo sapiens (Human), UniProt Q99558). Briefly: Inhibition of auto-phosphorylation of recombinant human NIK/MAP3K14 (AlphaScreen). The assay is classed as biochemical. To be noted: NIK auto-phosphorylation, 5 μM ATP, 1 nM NIK, 2 h at 25° C.; average of values. The method in brief: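 AlphaScreen read-out (anti-phospho-IKK Ser176/180 antibody, Protein A acceptor and glutathione donor beads) of NIK auto-phosphorylation. Reaction: 1 nM enzyme, 5 μM ATP, Tris pH 7.5 buffer with Mg2+ and vanadate, 2 h at 25° C., final DMSO 0.7%. IC50 came from a sigmoidal curve fit.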

Molecules are shown by their SMILES. Where two headings read alike, the source gives them in different places. Where only a bound is given, the exact number is not on record here.

Sequence of recombinant human NF-kappaB-inducing kinase (NIK/MAP3K14) (Q99558 whole entry): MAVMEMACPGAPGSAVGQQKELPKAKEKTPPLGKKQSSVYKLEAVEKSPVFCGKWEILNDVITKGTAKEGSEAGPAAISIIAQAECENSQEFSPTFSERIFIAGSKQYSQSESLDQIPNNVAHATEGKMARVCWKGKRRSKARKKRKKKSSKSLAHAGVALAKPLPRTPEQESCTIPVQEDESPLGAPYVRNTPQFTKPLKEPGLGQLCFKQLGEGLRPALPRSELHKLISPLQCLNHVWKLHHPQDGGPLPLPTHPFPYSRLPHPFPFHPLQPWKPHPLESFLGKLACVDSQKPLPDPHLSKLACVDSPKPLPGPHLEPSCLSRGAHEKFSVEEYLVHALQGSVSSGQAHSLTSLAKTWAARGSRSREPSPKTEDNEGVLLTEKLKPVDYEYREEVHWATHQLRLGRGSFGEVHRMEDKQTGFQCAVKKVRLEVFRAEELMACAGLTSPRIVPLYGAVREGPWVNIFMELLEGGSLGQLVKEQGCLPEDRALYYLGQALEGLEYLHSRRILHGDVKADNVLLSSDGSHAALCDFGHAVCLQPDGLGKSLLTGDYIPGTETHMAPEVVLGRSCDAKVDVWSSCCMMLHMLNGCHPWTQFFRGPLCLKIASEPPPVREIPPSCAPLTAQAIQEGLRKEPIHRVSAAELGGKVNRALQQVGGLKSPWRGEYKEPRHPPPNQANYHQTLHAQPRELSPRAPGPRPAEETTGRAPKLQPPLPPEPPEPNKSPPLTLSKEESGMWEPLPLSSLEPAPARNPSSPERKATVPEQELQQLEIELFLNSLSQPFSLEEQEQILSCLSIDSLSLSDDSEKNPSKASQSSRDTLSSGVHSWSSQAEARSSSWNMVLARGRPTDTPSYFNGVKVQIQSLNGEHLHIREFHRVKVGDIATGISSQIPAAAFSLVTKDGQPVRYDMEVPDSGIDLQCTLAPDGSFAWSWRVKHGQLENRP

As for `Cc1cnc(N)c2nc(-c3cccc(C#C[C@]4(O)CCc5cccnc54)c3)ncc12` [Example 62, (R)-7-((3-(8-Amino-5-methylpyrido[3,4-d]pyrimidin-2-yl)phenyl)ethynyl)-6,7-dihydro-5H-cyclopenta[b]pyridin-7-ol], the half-inhibitory concentration (IC50) in assay [1] (Homo sapiens, L-363, 6 h) was 0.022 µM; in assay [2], at most 0.0005 µM.
As to `Cc1cc2cnc(-c3cccc(C#C[C@]4(O)CCc5cccnc54)c3)nc2c(N)n1` [Example 63, (R)-7-((3-(8-amino-6-methylpyrido[3,4-d]pyrimidin-2-yl)phenyl)ethynyl)-6,7-dihydro-5H-cyclopenta[b]pyridin-7-ol], the IC50 stood at 0.14 µM in assay [1] (Homo sapiens, L-363, 6 h) and 0.0014 µM in assay [2].
As for `Nc1nccc2cnc(-c3cccc(C#C[C@@]4(O)CCn5ccnc54)c3)nc12` [Example 64, (S)-7-[2-[3-(8-Aminopyrido[3,4-d]pyrimidin-2-yl)phenyl]ethynyl]-5,6-dihydropyrrolo[1,2-a]imidazol-7-ol], the IC50 in assay [1] (Homo sapiens, L-363, 6 h) stood at 0.73 µM; in assay [2], 0.031 µM.
Take `Cc1ccc(C#C[C@]2(O)CCN(C)C2=O)cc1-c1ncc2c(C)cnc(N)c2n1` [Example 65, (R)-3-[2-[3-(8-Amino-5-methyl-pyrido[3,4-d]pyrimidin-2-yl)-4-methyl-phenyl]ethynyl]-3-hydroxy-1-methyl-pyrrolidin-2-one]: the IC50 came to 0.048 µM in assay [1] (Homo sapiens, L-363, 6 h) and 0.001 µM in assay [2].
For `Cc1ccc(C#C[C@@](C)(O)c2nccs2)cc1-c1ccc2ccnc(N)c2c1` [Example 68, (R)-4-[3-(1-Amino-7-isoquinolyl)-4-methyl-phenyl]-2-thiazol-2-yl-but-3-yn-2-ol], in that order: above 5 µM and 0.055 µM.
On to `Cc1ccc(C#C[C@@](C)(O)c2nccs2)cc1-c1ncc2ccnc(N)c2n1` [Example 69, (R)-4-(3-(8-Aminopyrido[3,4-d]pyrimidin-2-yl)-4-methylphenyl)-2-(thiazol-2-yl)but-3-yn-2-ol], for which the half-inhibitory concentration (IC50) in assay [1] (Homo sapiens, L-363, 6 h) worked out at 0.15 µM; in assay [2] it was 0.001 µM.
For the compound `[2H]C([2H])([2H])N1CC[C@@](O)(C#Cc2ccc(C)c(-c3ccc4ccnc(N)c4c3)c2)C1=O` [Example 70, (R)-3-[2-[3-(1-Amino-7-isoquinolyl)-4-methyl-phenyl]ethynyl]-3-hydroxy-1-(trideuteriomethyl)pyrrolidin-2-one], the concentration for half-maximal inhibition (IC50) in assay [1] was 2.21 µM; in assay [2] it was 0.026 µM.
Take `Cc1nnc([C@](C)(O)C#Cc2ccc(C)c(-c3ncc4ccnc(N)c4n3)c2)o1` [Example 74, (R)-4-(3-(8-Aminopyrido[3,4-d]pyrimidin-2-yl)-4-methylphenyl)-2-(5-methyl-1,3,4-oxadiazol-2-yl)but-3-yn-2-ol]: the half-inhibitory concentration (IC50) in assay [1] (Homo sapiens, L-363, 6 h) is 2.95 µM; in assay [2], 0.056 µM.
For `Cc1ccc(C#C[C@]2(O)CCc3cccnc32)cc1-c1ncc2ccnc(N)c2n1` [Example 75, (R)-7-((3-(8-Aminopyrido[3,4-d]pyrimidin-2-yl)-4-methylphenyl)ethynyl)-6,7-dihydro-5H-cyclopenta[b]pyridin-7-ol], the IC50 turned out to be 0.084 µM in assay [1] (Homo sapiens, L-363, 6 h) and 0.0013 µM in assay [2].
With `Cc1cc(C#C[C@]2(O)CCN(C)C2=O)cc(-c2ncc3c(C)cnc(N)c3n2)c1` [Example 76, (R)-3-[2-[3-(8-Amino-5-methyl-pyrido[3,4-d]pyrimidin-2-yl)-5-methyl-phenyl]ethynyl]-3-hydroxy-1-methyl-pyrrolidin-2-one], the concentration for half-maximal inhibition (IC50) in assay [1] (Homo sapiens, L-363, 6 h) turned out to be 0.066 µM; in assay [2] it was 0.0023 µM.
For `Cc1ccc(C#C[C@]2(O)CCN(CC(F)(F)F)C2=O)cc1-c1ccc2ccnc(N)c2c1` [Example 77, (R)-3-[2-[3-(1-Amino-7-isoquinolyl)-4-methyl-phenyl]ethynyl]-3-hydroxy-1-(2,2,2-trifluoroethyl)pyrrolidin-2-one], in that order: above 5 µM and above 5 µM.
For the compound `Cc1nnc([C@](C)(O)C#Cc2ccc(C)c(-c3ccc4ccnc(N)c4c3)c2)o1` [Example 78, (R)-4-[3-(1-Amino-7-isoquinolyl)-4-methyl-phenyl]-2-(5-methyl-1,3,4-oxadiazol-2-yl)but-3-yn-2-ol], the IC50 in assay [1] (Homo sapiens, L-363, 6 h) was above 5 µM; in assay [2] it was 0.84 µM.

In general, IC50 refers to the midpoint of a concentration-inhibition curve.
